Source: patent publication US20230339835A1, “2,3,5-TRIMETHYL-6-NONYLCYCLOHEXA-2,5-DIENE-1,4-DIONE FOR SUPPRESSING AND TREATING ALPHA-SYNUCLEINOPATHIES, TAUOPATHIES, AND OTHER DISORDERS” (PTC THERAPEUTICS, INC., priority 2018, published 2023)
Converted amounts (≈) assume the structure as drawn. Marks after values point to notes of the source that are not given here.

Columns and labels:
[1] = test system: C57Bl/6 mice, MPTP-induced model of PD; assay: Mouse MPTP model of Parkinson's Disease, open field locomotor assay; type: in vivo; settings: MPTP 60 mg/kg (3 x 20 mg/kg at two-hour intervals)
Description: Animals. Species: Mouse. Strain: C57Bl/6. Source of Animals: Charles River. Age: 6 to 7 weeks. Sex: Male. Randomization: Animals were assigned randomly to treatment groups. Blinding of Study: Experimenters were blinded to the experimental treatments
Housing and Feeding. Acclimation/Conditioning: Not less than three days. Housing: Mice were housed on a 12 hr light/dark cycle (lights on 6:00 AM) No more than 4 mice per cage. Ventilated cage rack system. Diet: Standard rodent chow and water ad libitum.
Design Parameters. Route(s) of administration: PO. Dose Volume: PO: 5 mL/kg. Formulation(s): formulated by Melior according to directions from BioElectron. Vehicle-sesame oil (Spectrum Chemical, NF Catalog #SE130, CAS #8008-74-0). Dose Levels: 300 mg/kg. Dose Frequency: QD starting Day −2 (MPTP=Day 0) and until Day 7. Study duration: 11 days. Pretreatment time (up to 2 hrs): For Day 0 (MPTP Day): 30 min, Pretreatment time for Open Field Assay/Locomotor Activity (OFA/LMA) assay: 1 hr. Number of Groups: 3. Number of animals per group: 10. Total number of animals: 30 (in the study), 42 animals total (To ensure a proper power analysis of at least 10 animals/group, for all groups receiving MPTP, 4 additional animals were added to mitigate study impacts if there were MPTP-induced fatalities).
MPTP Treatment. MPTP was formulated in phosphate buffered saline and administered to mice three times at a dose of 20 mg/kg (1 mg/mL delivered at 20 mL/kg) at two-hour intervals (final dose of MPTP=60 mg/kg).
Locomotor activity. One day prior (baseline) and on Day 7 after MPTP administration (Day (−1) and Day 7), mice were monitored for various aspects of locomotor function using a fully automated open-field apparatus (Med-Associates, Inc). The apparatus consisted of a 10.75″×10.75″ arena enclosed in a sound-attenuated box, equipped with the fan and house light. […]
Data analysis. Data were averaged and are expressed as the average±SEM.
Data were analyzed by one-way ANOVA followed by a post-hoc tests. p-values of less than 0.05 were considered to be statistically significant from control.

[2] = Solubility in simulated fluids and water; type: physicochemical
Description: Solubility of Pattern A and melted solid was assessed in Fasted-State Simulated Gastric Fluid (FaSSGF), Fed-State Simulated Intestinal Fluid (FeSSIF), and Fasted-State Simulated Intestinal Fluid (FaSSIF), water, and 0.5% methyl cellulose+2% Tween80 in water. Five foil-covered 4 mL vials were prepared with 11-13 mg of as-received material (ID-1-1), 10 mm stir bars were included. Five foil-covered 4 mL vials containing between 11-13 mg of C9 were melted on a hot plate at 70° C. for 10 min and cooled to room temperature for 5 min, 10 mm stir bars were included.
Slurries were prepared with the as-received material ID-1-1 (Pattern A) and melted C9, each in 2.5 mL of simulated fluids (including 0.5% methyl cellulose+2% Tween80 in water), or water. The samples containing melted active pharmaceutical ingredient (API) were sonicated briefly, as they appeared to contain clumps of material. […] For solubility analysis 1 mL of each sample was pipetted into a syringe filter, the first 0.5 mL was filtered back into the source vial and the remaining 0.5 mL was filtered into HPLC vials with low volume inserts.
The response factor calculated with the calibration points was used to determine the concentrations of API in the simulated fluids and water. Calibration samples were prepared with as-received material (ID-1-1) in ACN. The concentrations and peak areas for each calibration point were plotted and a response factor calculated for solubility assessment.
Due to high pressures observed with the UPLC column, a different column and a modified method was employed for 24 h data points with 0.5% methyl cellulose+2% Tween80 in water, and 24 h in water (ID-30-4, ID-30-9 and ID-30-10). HPLC samples of ID-30-4 and 30-9 (those containing the methyl cellulose/Tween80 mixture) were diluted 10× with ACN. These samples plus a new set of injections of the calibration points were analyzed, a new response factor was determined, and the solubility of the remaining samples was calculated (response factor: 8084.7908; R2: 0.9989).

[3] = Solid form stability, one week at 75% RH and 40° C.; type: physicochemical; settings: 7 days, 75% relative humidity
Description: The solid form stability of the material was assessed over one week. 49.0 mg of ID-1-1 was placed inside of a foil-covered 4 mL vial, which was covered with a KimWipe. This vial was placed inside a 20 mL vial containing saturated aqueous sodium chloride. The vial was placed on a hot plate at 40° C. for 7 days, creating an atmosphere of 75% relative humidity in the system. After 7 days, the solid was sampled for HPLC (ID-4-1).
A sample of the stressed material was plated and analyzed by XRPD; the observed pattern was Pattern A. The XRPD data is shown in FIG. 16. Microscopy images of ID-4-1 were captured at 100× and 400× magnification. The images are shown in FIG. 17A (100×) and FIG. 17B (400×).

[4] = Humidification cycling by dynamic vapor sorption (DVS); type: physicochemical
Description: As-received material (ID 1-1) was subjected to humidification cycling by dynamic vapor sorption (DVS) instrument. The material underwent a 0.01% change in mass in the 15-75% relative humidity range, and a 0.08% change in mass over the full range of 2-95% relative humidity. Following humidification cycling, the solid was analyzed by XRPD.

Solubility at 24 hours ([2]; 0.5% MC + 2% Tween80 (aq), Phenomenex Luna Phenyl Hexyl HPLC column and modified method) [µg/mL] | Solubility at 24 hours (mg/mL) ([2]; 0.5% MC + 2% Tween80 (aq), Phenomenex Luna Phenyl Hexyl HPLC column and modified method, listed as A) | Conc. (mg/mL) at 30 min ([2]; 0.5% MC + 2% Tween80 (aq.)) [mg/mL] | Conc. (mg/mL) at 30 min ([2]; FaSSGF) | Solubility at 24 hours (mg/mL) ([2]; FaSSGF) | Conc. (mg/mL) at 30 min ([2]; FaSSIF) [mg/mL] | Solubility at 24 hours (mg/mL) ([2]; FaSSIF) | Conc. (mg/mL) at 30 min ([2]; FeSSIF) [mg/mL] | Solubility at 24 hours ([2]; FeSSIF) [µg/mL] | Conc. (mg/mL) at 30 min ([2]; water) | Solubility at 24 hours (mg/mL) ([2]; water) | XRPD pattern of stressed material [3] | impurities by HPLC in stability sample [3] | DVS Change Mass (wt. %) ([4]; 2-95% RH) | DVS Change Mass (wt. %) ([4]; 15-75% RH) | change in mass (DVS) ([4]; 15-75% relative humidity range) [%] | hygroscopicity ([4]; DVS humidification cycling) | change in mass (DVS) ([4]; full range of 2-95% relative humidity) [%] | Structure (SMILES) | depletion of dopamine in the striatum [1] [%]
– | – | – | – | – | – | – | – | – | – | – | – | – | – | – | – | – | – | CN1CC=C(c2ccccc2)CC1 [MPTP, 1-methyl-4-phenyl-1,2,3,6-tetrahydropyridine, reference compound] | ~74
310 | 0.31# mg/mL | 0.53 | BDL | BDL | 0.01 | BDL | 0.29 | 200 (≈ 724 µM) | BDL | BDL | Pattern A | did not show any impurities | 0.08 | 0.01 | 0.01 | not hygroscopic | 0.08 | CCCCCCCCCC1=C(C)C(=O)C(C)=C(C)C1=O [Pattern A, 2,3,5-trimethyl-6-nonylcyclohexa-2,5-diene-1,4-dione] | –
